Test results: patent publication US12496297B1, “Compositions of autophagy modulating agents and uses thereof” (Washington University, priority 2020, dated 2025)
Read-outs that look alike come from different tables or passages of the source.

Columns and labels:
[1] = system: α1-antitrypsin Z variant (ATZ); experiment: Steady state levels of ATZ in HTO/Z cell line (immunoblot); activity of G2 analogs; format: cell-based, human; settings: for Activity: G2 and G2 analogs, positive activity if shown to have any activity, not quantified
Procedure: For experiments with G2 analogs, Tet-off inducible cell lines were cultured in absence of doxycycline for at least 12 days to ensure expression of […] or its variants. The cells were then sub-cultured into separate monolayers in fresh complete growth medium and incubated for 48 hours in the absence or presence of G2 analog. […] All compounds available commercially were purchased except for G2-22, which was synthesized with routine chemistry.
Cells were lysed in NP40 buffer and then separated into insoluble and soluble fractions according to a previously established technique. Samples were subjected to immunoblot analysis for AT and GAPDH. For immmunoblot analysis to detect AT or GAPDH, cells were lysed in 50 mM Tris-HCl, 150 mM NaCl, 1% NP-40, pH 8.0. Protein concentrations were determined by BCA protein assay (Pierce Biotechnology, Rockford, IL). […] The membranes were blocked in 5% milk and then incubated overnight at 4° C. with primary antibody for AT (1:1000, Diasorin), LC3 (1:2000, Sigma), p62 (1:1000, Cell signaling, Danvers, MA), ATG5 (1:1000, Cell signaling), mTOR substrate sampler (1:1000 for all antibodies, Cell signaling). Donkey anti-goat Ig (Jackson Labs, Bar Harbor, ME), goat anti-rabbit lg (1:50,000), or goat anti-mouse Ig (1:50,000) were used as secondary antibodies in TBST at RT, 1 hour. Blots were visualized with ECL or West Femto from Pierce. Membranes were re-probed with GAPDH (1:5000, Sigma) as loading control. Insoluble samples were stained with Gel Code Blue as loading control.

PiZ mouse model of ATD = experiment: PiZ mouse model of ATD, oral gavage; format: in vivo
Procedure: The PiZ mouse model has been described previously (Hidvegi 2010 Science 329 (5988): 229-232). For experiments involving drug administration in mice in vivo, doses of 5-50 mg/kg/day for the G2 analog were given for 3 weeks, and then liver histological and biochemical characteristics were assessed exactly as previously described (Hidvegi 2005J Biol Chem 280 (47): 39002-39015). Each experimental group contained 4-6 four- to six-month old male mice randomly chosen from littermates. G2 analogs were delivered by oral gavage. Control mice were littermates given DMSO by gavage. The outcome was determined by evaluating 1) the hepatic ATZ load by immunoblotting with anti-AT, immunostaining with PAS/D; 2) hepatic fibrosis using Sirius Red staining; 3) autophagy by immunoblotting with anti-LC3 and anti-p62, and imaging for GFP+autophagosomes; 4) monitoring blood glucose levels by glucometer and blood insulin levels by ELISA Wide Range Assay (CrystalChem). For immunostaining, liver samples were fixed in 10% Formalin, followed by staining with PAS after diastase and Sirius Red using standard techniques. Quantitative evaluation of immunostaining and histochemical staining was carried out by a member of the team that was blinded to group allocation. Blood glucose and insulin levels were quantified as previously described (Wang 2019 PLOS One 14: e0209748).
For immunoblot analysis of proteins in liver, the liver was snap frozen in liquid nitrogen and stored at −80° C. Liver was homogenized in 50 mM Tris-HCl pH 8.0, 150 mM NaCl, 2 mM KCl, 2 mM MgCl2, 0.5% Triton X-100, 0.5% deoxycholic acid containing 0.1 mM […] and Complete protease inhibitor cocktail from Roche. Total protein concentration was measured by BCA assay (Pierce) and followed by western blotting as described previously.

misfolded ATZ [2] = settings: mammalian cell models of ATD; previously shown; cited from earlier work
HD-MSNs [3] = experiment: Autophagy measurement in HD-MSNs (p62 immunoblot, CYTO-ID green); format: cell-based, human; settings: 0.5 μM vs DMSO
Procedure: To test whether the differentially expressed genetic pathways between pre-HD-MSNs and HD-MSNs would be reflected at the cellular level, whether the autophagy activity would be different between pre-HD- and HD-MSNs was assessed. CYTO-ID assay, a fluorescence-based live-cell assay for accumulated autophagic vacuoles was performed as well as immunoblot for p62/SQSTM1 expression, a marker used to monitor autophagic activity due to its binding to LC3 and degradation by autophagy.
(§1) Adult dermal fibroblasts from symptomatic HD patients (Coriell NINDS and NIGMS Repositories: ND33947, ND30013, GM02173, GM04230, GM04198, GM02147), presymptomatic HD patients (GM04717, GM04861, GM04855, GM04831, GM04857, GM04829), and healthy controls (GM02171) were acquired from the Coriell Institute for Medical Research. The lentiviral cocktail of rtTA, pTight-9-124-BclxL, CTIP2, MYT1L, DLX1, and DLX2 was added to human fibroblasts for 16 h, then cells were washed and fed with fibroblasts media containing 1 μg/mL doxycycline (DOX). […]
Cells were lysed in a 2% SDS buffer. The concentrations of whole-cell lysates were measured using the Pierce BCA protein assay kit (Thermo Scientific, #23227). […]

[4] = system: HTT inclusion bodies (IBs) in HD-MSNs; experiment: HTT inclusion bodies / mHTT aggregation in HD-MSNs; format: cell-based, human; settings: HD-MSNs from three patients, 0.5 μM vs DMSO, PID30, FIG. 18K
Procedure: Adult dermal fibroblasts from symptomatic HD patients (Coriell NINDS and NIGMS Repositories: ND33947, ND30013, GM02173, GM04230, GM04198, GM02147), presymptomatic HD patients (GM04717, GM04861, GM04855, GM04831, GM04857, GM04829), and healthy controls (GM02171) were acquired from the Coriell Institute for Medical Research. The lentiviral cocktail of rtTA, pTight-9-124-BclxL, CTIP2, MYT1L, DLX1, and DLX2 was added to human fibroblasts for 16 h, then cells were washed and fed with fibroblasts media containing 1 μg/mL doxycycline (DOX). Briefly, transduced fibroblasts were maintained in fibroblasts media for two days with doxycycline before selection with Puromycin ([…]) on day 3, then were plated onto poly-ornithine, fibronectin, and laminin-coated coverslips on day 5. Cells were subsequently maintained in NeurobasalA (Gibco) media containing B-27 plus supplement and GlutaMAX supplemented with valproic acid (1 mM), dibutyryl cAMP ([…]), BDNF (10 ng/ml), NT-3 (10 ng/ml), and RA ([…]) until day 13. […]
Reprogramming cells were fixed with 4% paraformaldehyde (Electron Microscopy Sciences, #15710) for 20 min at room temperature (RT), and then permeabilized with 0.2% Triton X-100 for 10 min at RT. […] Images were captured using a Leica SP5X white light laser confocal system with Leica Application Suite (LAS) Advanced Fluorescence 2.7.3.9723.

[5] = system: α1-antitrypsin Z variant (ATZ); experiment: Steady state levels of ATZ in HTO/Z cell line (immunoblot); activity of G2 analogs; format: cell-based, human; settings: 24 hr treatment, 0.5 and 2.5 μM, FIG. 22C
HD-MSNs [6] = experiment: Neuronal cell death assay in HD-MSNs (SYTOX, Caspase-3/7, Annexin V); format: cell-based, human
Procedure: as §1
0.1 μM SYTOX gene nucleic acid stain (Invitrogen, S7020) and 1 μl/mL of Hoeschst 33342 (Thermo Scientific, 66249) were added into cell medium. […] Images were taken using Leica DMI 4000B inverted microscope with Leica Application Suite (LAS) Advanced Fluorescence.
Cells were treated with 1× Essen Bioscience IncuCyte® Caspase-3/7 Green Reagent (final concentration 5 µM) and 1× Essen Bioscience IncuCyte® Annexin V Green or Red Reagent on day 22 or 26. […] Images were analyzed for the number of green or red objects per well. For the apoptotic index, the number of green or red objects (i.n., fluorescence cells) divided by phase area (μm2) per well was quantified by the IncuCyte® S3 Live-Cell Analysis System.

[7] = system: C. elegans model of ATD (sGFP::ATZ); experiment: Quantification of ATZ accumulation in C. elegans model of ATD (Z worm); format: in vivo; settings: GB administered to ATD C. elegans model
Procedure: The C. elegans strain VK1882 (vkls1882 [nhx-2p::sGFP::ATZ; myo-2p::mCherry) was routinely cultured at 20° C. on nematode growth medium plates seeded with E. coli strain OP50. Quantitative analysis of ATZ accumulation was carried out by detection of fluorescence using the Thermofisher CellInsight CX-7 high content imager as previously described. L4 stage animals were placed into wells of 384-well plates (30 per well) containing G2 analogs or an equivalent volume of DMSO. Following incubation at 20° C. for 24 hours, sodium azide was added to a final concentration of […] to anesthetize the animals and then each well was imaged on the CX-7 high content imager for quantification.

misfolded ATZ [8] = experiment: Autophagic degradation of ATZ in mammalian cell line model of ATD; format: cell-based; settings: effect blocked when autophagy gene ATG14 was deleted
[9] = PiZ mouse, marker of autophagic activity

SMILES	Activity [1]	hepatic ATZ load (PiZ mouse model of ATD; PiZ mouse)	insulin secretion (PiZ mouse model of ATD; PiZ mouse)	LC3-II conversion in the liver (PiZ mouse model of ATD; [9])	p62 levels in the liver (PiZ mouse model of ATD; [9])	hepatic / liver fibrosis (Sirius Red staining) (PiZ mouse model of ATD; PiZ mouse, G2-19: 3 weeks of treatment vs placebo)	liver damage (PiZ mouse model of ATD; mouse model of ATD)	autophagic degradation of misfolded ATZ (misfolded ATZ [2])	IC50 ([1]; TABLE 1, assay not given) [nM]	p62/SQSTM1 protein levels (immunoblot) (HD-MSNs [3]; PID26, FIG. 18F)	CYTO-ID signal (autophagic vacuoles) (HD-MSNs [3]; PID 26, FIG. 18G)	mHTT aggregation [4]	steady-state levels of ATZ [5]	MSN death by Caspase 3/7 activation and Annexin V signals (HD-MSNs [6]; HD.40-MSNs three concentrations PID 30 (FIG. 18I), three patients 0.5 μM (FIG. 18J))	MSN death measured by SYTOX (HD-MSNs [6]; HD.44-MSNs, 0.125, 0.25, or 0.5 µM, PID 35, FIG. 18H)	accumulation of misfolded, aggregated ATZ [7]	autophagic degradation of misfolded ATZ (misfolded ATZ [8])
COc1ccc(Cl)cc1C(N)=O [G2, 5-chloro-2-methoxybenzamide]	Active	significant reduction of hepatic ATZ load	without affecting insulin secretion	increased LC3-II conversion	decreased p62 levels	significant reduction	reverse liver damage	promoted autophagic degradation	–	–	–	–	–	–	–	–	–
O=c1ccc2c(Cl)cc(Cl)cc2[nH]1 [G2-115, 5,7-dichloroquinolin-2(1H)-one]	Active	–	–	–	–	–	–	–	100 to 1000	decrease in p62/SQSTM1 protein levels	increase in CYTO-ID signal	significantly lower levels of mHTT aggregation	decreased the steady-state levels of ATZ	significant reduction in MSN death in a dose-dependent manner	significant reduction in MSN death in a dose-dependent manner	–	–
COc1ccc(Cl)cc1C(=O)NCCc1ccc(S(=O)(=O)NC(=O)NC2CCCCC2)cc1 [GB, 5-chloro-N-(4-(N-(cyclohexylcarbamoyl)sulfamoyl)phenethyl)-2-methoxybenzamide, reference compound]	–	–	–	–	–	–	–	–	–	–	–	–	–	–	–	reduced accumulation of misfolded, aggregated ATZ	enhances the autophagic degradation of misfolded ATZ
